Data published in patent publication US4020111A, “Propynyloxy alkyl arene insecticides” (priority 1975, dated 1977).

Columns and labels:
mice [1] = experiment: extension of Secobarbital sleeping time by synergists; format: in vivo, Swiss albino white male mice; settings: Secobarbital 37 mg/K; for Relative Sleeping Time: treated/control
Description: (§1) The selectivity of the synergist compounds of this invention is illustrated by the results of sleeping-time extension tests and of acute toxicity tests on Swiss albino white male mice.
(§2) The effect of various synergist compounds on sleeping time of sodium secobarbital [Secobarbital] and of 3,3-diethyl-5-methyl-2,4-dioxypiperidine [Noludar] was determined by administering the drug, with and without synergist, to approximately 38-day old male mice weighing from 25 to 30 grams. Synergists were administered in each of two doses, 74.0 mg/kg (dilution being 2.0 mg/0.1 ml corn oil), and 110.0 mg/kg (dilution 3.0 mg/0.1 ml oil). Secobarbital was administered at a dose of 37.0 mg/kg (dilution 1.0 mg/0.1 ml water). Noludar was administered at a dose of 110.0 mg/kg (dilution 3.0 mg/0.1 ml water). The synergist was administered one hour prior to administration of the Secobarbital or Noludar. Secobarbital and Noludar sleeping times were obtained for both the control (drug only) and the treated (synergist plus drug) mice by noting the time lapse between the administration of the drug and the recovery of the righting reflex, i.e. when the animal regains conciousness and can walk up an inclined wooden tray with coordination. The relative sleeping time (R.S.) was noted. The R.S. is the extended sleeping time in the treated mice (synergist plus drug) divided by the sleeping time in the control mice (drug only). The mean sleeping time for the treated mice and the R.S. are shown on Table XXXXIV for various synergist compounds.

mice [2] = experiment: extension of Noludar sleeping time by synergists; format: in vivo, Swiss albino white male mice; settings: Noludar 110 mg/K, synergist 110 mg/K; for Relative Sleeping Time: treated/control
Description: as §1, §2

mice [3] = experiment: synergism of acute toxicity of Dimetilan, GS 13005, Secobarbital and Methadone (intraperitoneal); format: in vivo, Swiss albino white male mice; settings: for number of mice dead: 48 hours, of eight mice
Description: The synergism of the acute toxicity of Dimetilan by various synergists was determined by tests on Swiss albino, white male mice aged 5 to 6 weeks and weighing 23 to 27 grams. The synergists and insecticides were dissolved in corn oil and the drugs were dissolved in distilled water. All compounds were administered intraperitoneally by injection in the lower quadrent of the abdomen. The synergist was administered in 0.1 ml of corn oil 1 hour prior to administration of the insecticide. Eight mice were treated, per dosage, with each synergist. The mice were watched for a minimum of 6 hours while held in a glass jar with bedding individually after intraperitoneal injection of the test solutions. Lethality was noted, the animals were weighed and transferred in cages, and food and water were supplied. Control mice were given 0.1 ml of corn oil at the time of administration of the synergist to the test mice and 0.1 ml corn oil plus Dimetilan at the time of administration of the insecticide to the test mice.
By the same procedure, the synergism of acute toxicity of GS 13005, Secobarbital and 6-dimethylamino-4,4-diphenyl-3-heptanone [Methadone] was determined.

[4] = test system: Wilson strain house flies; format: in vivo, house fly (susceptible Wilson strain); settings: for Contact Synergistic Ratio, Carbaryl (LC50 insecticide alone / LC50 with synergist): in vivo; for Contact Synergistic Ratio, Pyrolan (LC50 insecticide alone / LC50 with synergist): synergist to insecticide 5:1 by weight, 24 h
Description: The required solutions of the insecticide and of the synergist compound were prepared in acetone at a concentration of one milligram per milliliter. One-pint wide mouth glass jars were coated wiith the appropriate insecticide-synergist combination by rolling the jars containing aliquots of the appropriate solutions diluted to three milliliters with acetone to deposit, by evaporation, a film of the test materials. The flies were transferred under carbon dioxide anesthesia and held in the jar at room temperature. Perforated aluminum foil was used to cover the jars and to hold cotton saturated with 10% sugar solution. Counts were made at intervals, but the recorded mortality was based on 24-hour kill, rather than knockdown. All prostrate nonmoving flies were considered dead. A determination was then made of the contact synergistic ratio [SR], which is the ratio of the LC50 of insecticide alone to the LC50 of the insecticide when applied together with the synergist. The LC50 of the insecticide was estimated from a log-probit plot of percent kill versus dosage. […] The LC50 of the combination of insecticide and synergist was determined at a synergist to insecticide parts by weight ratio of five to one.

[5] = test system: IN/WHO strain house flies; experiment: topical application test, percent kill after 24 hours, IN/WHO strain; format: in vivo, house fly (susceptible IN/WHO strain); settings: HRS 1422 alone 0.125 μg/fly
Description: In Table IX, and in the tables following it, the doses of topically applied insecticides and of synergists unless otherwise noted are expressed as micrograms per fly (μg/fly).
The synergistic effect of O-(2-propynyl) oximes with mobam was determined from topical application tests on susceptible, female, IN/WHO strain house flies and from tests on resistant, female, Rutgers A strain house flies. The synergist and insecticide were dissolved in ACS Grade acetone in such quantities that a 1.0μ liter volume applied to the thorax of 3-to-5 day old CO2 -anesthetized female adult house flies contained the desired dosage. After being treated, the flies were confined, 10 to a plaster petri dish, with 3-5 dishes/treatment, and held for 24-hr. observation of mortality. Reconstituted skim milk on cotton dental wicks was provided during the holding period. The percent kills after 24 hours are shown in Table X for the IN/WHO strain and Table XI for the Rutgers A strain.
The synergistic effect of benzyl 2-propynyl ethers with mobam was determined from topical application tests on IN/WHO and Rutgers A strain houseflies, following the procedure of Example 5. The percent kills after 24 hours are shown in Table XIV for the IN/WHO strain and in Table XV for the Rutgers A strain.
The effects of varying the insecticide dose and the synergist-insecticide ratio are further illustrated, with synergist compounds II-D, II-E, II-F and Mobam insecticide, in Tables XVI, XVII and XVIII.
The synergistic effect on IN/WHO flies of synergist compound II-K with Dimetilan, pyrolan, Baygon and HRS 1422 is illustrated by the 24 hour percent mortality data in Tables XIX, XX and XXI.
The effect on IN/WHO flies of synergist compound IV-C, identified in Table IV, with mobam was determined by the topical application procedure of Example 5.
The synergistic effect with Diazinon of compounds I-B, I-D, I-F, I-G, I-H and I-I, identified in Tables I and Ia, was determined from topical application tests on IN/WHO strain houseflies and on Rutgers A strain houseflies by the procedure of Example 5. The percent kills after 24 hours are shown in Table XXV for the IN/WHO strain and Table XXVI for the Rutgers A strain.
The synergistic effect with GS 13005 of compounds I-A, I-B, I-D, I-E, I-F, I-G and I-I was determined from topical application tests to IN/WHO strain, Rutgers A strain and polyvalent CH strain houseflies using the procedures of Example 5. The percent kills of the IN/WHO strain flies after 24 hours are shown in Table XXVIII; of the Rutgers A strain, in Table XXIX; and of the polyvalent CH strain, in Table XXX. The doses of insecticide alone to the CH strain files caused 10-40% mortality.
The synergistic effect with Diazinon and GS 13005 of various of the benzyl 2-propynyl ethers identified in Tables II and IIa was determined by topical application tests on IN/WHO strain, and Rutgers A strain and polyvalent, resistant, CH strain houseflies using the procedures of Example 5. The percent kills after 24 hours of IN/WHO strain flies are shown in Table XXXI; of Rutgers A strain flies, in Table XXXII; and of CH strain flies, in Table XXXIII. The doses of insecticide alone to the CH strain flies caused 10-40% mortality.
The synergist effect on IN/WHO flies of synergist compound II-K with Gardona and Bidrin is illustrated by the 24 hour percent mortality data in Tables XXXIV and XXXV.
The synergistic effect on IN/WHO strain flies and Rutgers A strain flies of compound IV-C with GS 13005 and with Diazinon was determined by the topical application procedure of Example 5. The percent kills of IN/WHO strain flies after 24 hours are shown in Tables XXXVI and XXXVII; the percent kills of Rutgers A strain flies are shown in Tables XXXVIII and XXXIX.

[6] = Dimetilan 8 mg/kg + synergist 80 mg/kg ip
[7] = Dimetilan 8 mg/kg + synergist 240 mg/kg ip

Compound	Mean Sleeping Time (mice [1]; synergist 110 mg/K) [min]	Relative Sleeping Time (mice [1]; synergist 110 mg/K)	Mean Sleeping Time (mice [2]) [min]	Relative Sleeping Time (mice [2])	number of mice dead (mice [3]; [6])	number of mice dead (mice [3]; [7])	Contact Synergistic Ratio, Carbaryl (LC50 insecticide alone / LC50 with synergist) [4]	Contact Synergistic Ratio, Pyrolan (LC50 insecticide alone / LC50 with synergist) [4]	Mean Sleeping Time (mice [1]; synergist 74 mg/K) [min]	Relative Sleeping Time (mice [1]; synergist 74 mg/K)	also measured
C#CCOCc1ccc([N+](=O)[O-])c(Cl)c1 [II-O]	26	1.1	52	2.4	0	2	–	–	–	–	–
C#CCn1ncc2ccc(Cl)cc21 [III-D]	55	1.2	45	1.5	–	1	250	25	–	–	–
C#CCn1nc(Cl)c2ccccc21 [III-B]	6	1.3	46	1.0	–	0	117	30	–	–	–
C#CCn1nc(Cl)c2ccc([N+](=O)[O-])cc21 [III-C, N-(2-propynyl)-3-chloro-6-nitroindazole]	–	–	–	–	–	–	53	10	–	–	–
C#CCOCc1ccc([N+](=O)[O-])cc1Cl [II-N]	39	1.7	58	1.9	0	4	–	–	20	1.0	–
C#CCOCc1ccc2c(c1)OCO2 [II-G]	–	–	–	–	–	–	100	15	–	–	–
CCC(=O)C(CC(C)N(C)C)(c1ccccc1)c1ccccc1 (stereo not shown) [Methadone, 6-dimethylamino-4,4-diphenyl-3-heptanone, reference compound]	–	–	–	–	–	–	–	–	–	–	mice lethality (number dead) (mice [3]; control: Methadone 32 mg/kg in 0.1 ml corn oil): 2
C=CCC1(C(C)CCC)C(=O)NC(=O)NC1=O (stereo not shown) [Secobarbital, sodium secobarbital, reference compound]	–	–	–	–	–	–	–	–	–	–	mice lethality (number dead) (mice [3]; control: Secobarbital 90 mg/kg in 0.1 ml corn oil): 0
C#CCOC(c1cccc2ccccc12)C(C)[N+](=O)[O-] (stereo not shown) [IV-B, 2-propynyl 1-naphthyl-2-nitropropyl ether]	–	–	–	–	–	–	50	10	–	–	–
C#CCOCc1ccc(Cl)c([N+](=O)[O-])c1 [II-M]	47	2	47	2.1	0	3	–	–	29	1.0	–
C#CCOCc1cccc(Cl)c1[N+](=O)[O-] [II-I]	32	1.3	56	1.8	0	3	–	–	31	1.2	–
C#CCOCc1ccc(Cl)cc1Cl [II-B]	–	–	–	–	–	–	50	15	–	–	–
C#CCOCc1ccc(Cl)cc1 [II-A]	–	–	–	–	–	–	50	7	–	–	–
C#CCOCc1cccc([N+](=O)[O-])c1Cl [II-L]	42	1.8	56	1.8	0	5	–	–	31	1.0	–
CNC(=O)Oc1cc(C(C)C)cc(C(C)C)c1 [HRS 1422, 3,5-di-isopropylphenyl methylcarbamate, reference compound]	–	–	–	–	–	–	–	–	–	–	24 hour percent mortality [5]: 0%
C#CCOCc1ccc(Cl)cc1[N+](=O)[O-] [II-J]	30	1.4	70	2.2	0	4	–	–	27	1.0	mice lethality (number dead) (mice [3]; GS 13005 71 mg/kg + synergist 213 mg/kg): 6; mice lethality (number dead) (mice [3]; Methadone 32 mg/kg + synergist 215 mg/kg): 3; mice lethality (number dead) (mice [3]; Secobarbital 90 mg/kg + synergist 215 mg/kg): 0
